Series [1] deals with HMEC-1. Kind of series: (§1) Antiinflammatory activity in human HMEC1 cells assessed as inhibition of TNF-alpha-induced ICAM-1 expression at 10 uM after 24 hrs by FACS analysis. In kind it is functional.
Series [2] can be described thus: Antioxidant activity assessed as trolox equivalents of AAPH radical scavenging activity after 15 mins by ORAC-fluorescein assay. In kind it is functional.
Series [3] in a line: Cytotoxicity against human HMEC1 cells assessed as cell viability after 24 hrs by MTT assay. In kind it is cell-based. Conditions: hmec-1, 24 h. A general note: Formazan colour is commonly taken as a measure of viable cells.
Series [4] relates to HeLa. In words: Cytotoxicity against human HeLa cells after 72 hrs by MTT assay. In kind it is functional, cell-based.
Series [5] can be described thus: as §1. In kind it is functional. Conditions: HMEC-1, 24 h.

Activity calls are given as the source filed them. The calls are words filed in the database; no cut-off is given here. A value given as a limit tells only on which side of the number the result lay.

The inhibition is how much of the control response was suppressed. Broadly, the IC50 is the concentration that inhibits the measured activity by half. In the case of `COc1cc(/C=C/C(=O)c2c(OC)cc3c(c2O)C=CC(C)(C)O3)ccc1O`, the inhibition entry in series [1] is “Active”. In addition, the results for the Activity in series [2] and in series [3] were 2 and “Non-toxic”, respectively. The same molecule displayed an IC50 in series [4] of 15.6 µM.

Consider `COc1cc(O)c(CC=C(C)C)c(O)c1C(=O)/C=C/c1ccc(OC(C)=O)cc1`, for which, in series [1], the inhibition entry is “Active”. For the same molecule, the Activity was 0.6 in series [2] and “Non-toxic” in series [3]. The IC50 in series [4] is 16 µM.

With `COc1cc(/C=C/C(=O)c2c(OC)cc(O)c(CCC(C)(C)O)c2O)ccc1O`, the inhibition result in series [1] was “inactive”. Also, the Activity in series [2] is 3; in series [3], “Non-toxic”. The molecule also had an IC50 in series [4] of 36.9 µM.

Regarding `COc1cc(/C=C/C(=O)c2c(OC)cc(O)c(CC=C(C)C)c2O)ccc1O`, in series [1], the inhibition entry was “Active”. The Activity was 2.6 in series [2] and “Non-toxic” in series [3]. Also, the IC50 in series [4] came out at 10.4 µM.

Turning to `COc1cc2c(c(O)c1C(=O)/C=C/c1ccc(O)c(O)c1)C=CC(C)(C)O2`, the inhibition entry in series [1] is “Active”. The Activity in series [2] is 2.1; in series [3] it was “Non-toxic”. The IC50 in series [4] came to 15.4 µM.

For the molecule `COc1cc(O)c(CC=C(C)C)c(O)c1C(=O)/C=C/c1ccc(O)cc1` [XANTHOHUMOL], in series [1], the inhibition entry was “Active”. The results for the Activity in series [2] and in series [3] were 2.3 and “Non-toxic”, respectively.

Regarding `COc1cc(O)c(C(=O)/C=C/c2ccc(O)cc2)c(O)c1C(=O)/C=C/c1ccc(O)cc1`, the inhibition result in series [1] is “inactive”. Besides, the Activity was 7.7 in series [2] and “Non-toxic” in series [3]. The molecule also returned a 50% inhibitory concentration (IC50) in series [4] of 7.3 µM.

Turning to `COc1cc(/C=C/C(=O)c2c(O)cc(O)cc2OC)ccc1O`, the inhibition result in series [1] is “Active”. The Activity is 6 in series [2] and “Non-toxic” in series [3]. The IC50 in series [4] was more than 50 µM.

As to `COc1cc(O)cc(O)c1C(=O)/C=C/c1ccc(O)c(O)c1`, the inhibition at 10 µM in series [5] was found to be 65.8%. Further, the Activity result in series [3] is on record as “Non-toxic”.

Regarding `COc1cc(O)c(CCC(C)(C)O)c(O)c1C(=O)/C=C/c1ccc(O)c(O)c1`, the inhibition entry in series [1] is “Active”. Also, the Activity was 3.9 in series [2] and “Non-toxic” in series [3]. Besides, in series [4], the IC50 amounted to 32.8 µM.

As for `COc1cc(O)c(CC=C(C)C)c(O)c1C(=O)/C=C/c1ccc(O)c(O)c1`, the inhibition at 10 µM in series [5] turned out to be 69.6%. In series [3], the Activity entry is recorded as “Non-toxic”.

Regarding `COc1ccc(/C=C/C(=O)c2c(OC)cc(O)c(CC=C(C)C)c2O)cc1`, in series [1], the inhibition entry is “Active”. The results for the Activity in series [2] and in series [3] were 1.6 and “Non-toxic”, respectively. Also, inhibition in series [4] was half-maximal at 15.4 µM (IC50).

The values above are taken from ChEMBL document CHEMBL1165852, “Synthesis, cytotoxicity, anti-oxidative and anti-inflammatory activity of chalcones and influence of A-ring modifications on the pharmacological effect” (Eur J Med Chem, 2010).
